According to patent US12186323B2, “Combination drugs of hypoxanthine and human immunoglobulin” (Institute of Blood Transfusion, Chinese Academy of Medical …, priority 2021, dated 2025):

Test system: male mice
Assay: Analysis of intestinal injury by 12 Gy of local abdominal irradiation
Type: in vivo
Settings: 12 Gy local abdominal irradiation
Protocol: 44 male mice were divided into 4 groups: • 1) TAI group, 10 mice; • 2) hypoxanthine group, 10 mice; • 3) IVIg group, 12 mice; • 4) IVIg+hypoxanthine group, 12 mice;
TAI group received only local abdominal irradiation.
Hypoxanthine was orally administered to the mice in hypoxanthine group 30 min before irradiation, followed by gavage through mouth every two days. The dose of hypoxanthine for each gavage was 50 mg/kg body weight.

[1] = hypoxanthine vs TAI group (FIG. 6), IVIg+hypoxanthine vs IVIg group (FIG. 8)

O=c1[nH]cnc2nc[nH]c12 [hypoxanthine]
no difference: length of the large intestine (hypoxanthine vs TAI group (FIG. 5), IVIg+hypoxanthine vs IVIg group (FIG. 7)) | level of inflammatory factor IL-6 in the small intestine [1] | level of inflammatory factor TNFα in the small intestine [1]
